Usually IC50 stands for the point on the concentration scale where inhibition reaches its midpoint. A high value points to lower potency.

Molecules are shown by their SMILES.

In this assay the target is T1, Dihydrofolate reductase (Candida glabrata (strain ATCC 2001 / BCRC 20586 / JCM 3761 / NBRC 0622 / NRRL Y-65 / CBS 138), UniProt Q6FPH0).
T1 sequence (Q6FPH0 whole entry): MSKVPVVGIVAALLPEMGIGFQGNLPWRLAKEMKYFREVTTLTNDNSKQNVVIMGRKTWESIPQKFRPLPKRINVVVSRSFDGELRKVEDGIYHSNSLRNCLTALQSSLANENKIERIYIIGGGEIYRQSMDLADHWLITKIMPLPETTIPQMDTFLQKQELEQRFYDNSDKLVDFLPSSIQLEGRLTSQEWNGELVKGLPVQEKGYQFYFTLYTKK
Nature of the assay: Enzyme Inhibition Assay. How it is done:
Enzyme activity assay were performed by monitoring the rate of enzyme-dependent NADPH consumption at an absorbance of 340 nm over 5 min.
For `COc1cc(-c2ccc(C)cc2)cc([C@@H](C)C#Cc2c(C)nc(N)nc2N)c1` (racemic), the midpoint of inhibition, the IC50, lay at 0.61 nM. In other words, the sub-nanomolar range.

As to `COc1cc(-c2cc(C)cc(C)c2)cc([C@@H](C)C#Cc2c(C)nc(N)nc2N)c1` (racemic) [Biphenyl antifolate, 2], half-maximal inhibition (IC50) was put at 0.55 nM.

Turning to `COc1cc(-c2ccc(C(C)(C)C)cc2)cc(C(C)C#Cc2c(C)nc(N)nc2N)c1` (racemic) [Biphenyl antifolate, 24], the IC50 stood at 10 nM.

Molecule `COc1ccc(-c2cc(OC)cc(C(C)C#Cc3c(C)nc(N)nc3N)c2)cc1` (racemic) returned an IC50 of 6.4 nM. This IC50 lies about 1.6-fold lower than the previous one.

`COc1cc(-c2ccccc2C)cc(C(C)C#Cc2c(C)nc(N)nc2N)c1` (stereo unspecified) [5-{3-[3-methoxy-5-(2-methylphenyl)phenyl]but-1-yn-1-yl}-6-methylpyrimidine-2,4-diamine] showed an IC50 of 7.3 nM.

As to `COc1cc(-c2c(C)cccc2C)cc(C(C)C#Cc2c(C)nc(N)nc2N)c1` (racemic) [Biphenyl antifolate, 6], half-maximal inhibition (IC50) required 5.5 nM.

The values are drawn from BindingDB's records for doi:10.1111/j.1747-0285.2008.00745.x (University of Connecticut, 2009).
